How the values were obtained:
[1] = test system: ryegrass, Italian; test: Test D pre-/postemergence herbicide test; type: in vivo, Lolium multiflorum; details: for Plant response rating: Postemergence, Ryegrass, Italian, scale 0 to 100; for Plant response rating, Ryegrass, Italian: Preemergence, scale 0 to 100 (0 no effect, 100 complete control)
Excerpt: (§1) Seeds of plant species selected from bluegrass (annual bluegrass, Poa annua), blackgrass (Alopecurus myosuroides), canarygrass (littleseed canarygrass, Phalaris minor), chickweed (common chickweed, Stellaria media), galium (catchweed bedstraw, Galium aparine), bromegrass, downy (downy bromegrass, Bromus tectorum), field poppy (Papaver rhoeas), field violet (Viola arvensis), foxtail, green (green foxtail, Setaria viridis), deadnettle (henbit deadnettle, Lamium amplexicaule), ryegrass, Italian (Italian ryegrass, Lolium multiflorum), kochia (Kochia scoparia), lambsquarters (Chenopodium album), oilseed rape (Brassica napus), pigweed (Amaranthus retroflexus), chamomile (scentless chamomile, Matricaria inodora), Russian thistle (Salsola kali), speedwell (bird's-eye speedwell, Veronica persica), barley, spring (spring barley, Hordeum vulgare), wheat, spring (spring wheat, Triticum aestivum), buckwheat, wild (wild buckwheat, Polygonum convolvulus), mustard, wild (wild mustard, Sinapis arvensis), oat, wild (wild oat, Avena fatua), radish, wild (wild radish, Raphanus raphanistrum), […]), barley, winter (winter barley, Hordeum vulgare), and wheat, winter (winter wheat, Triticum aestivum) were planted into a silt loam soil and treated preemergence with test chemicals formulated in a non-phytotoxic solvent mixture which included a surfactant. At the same time, these species were planted in pots containing Redi-Earth® planting medium (Scotts Company, 14111 Scottslawn Road, Marysville, Ohio 43041) comprising spaghnum peat moss, vermiculite, wetting agent and starter nutrients and treated with postemergence applications of the test chemicals formulated in the same manner. Plants ranged in height from 2 to 18 cm (1- to 4-leaf stage). Treated plants and controls were maintained in a controlled growth environment for 7 to 21 days after which time all species were compared to controls and visually evaluated. Plant response ratings, summarized in Table D, are based on a scale of 0 to 100 where 0 is no effect and 100 is complete control. A dash (-) response means no test result.

[2] = test system: canarygrass; test: Test D pre-/postemergence herbicide test; type: in vivo, Phalaris minor; details: for Plant response rating: Canarygrass, scale 0 to 100; for Plant response rating, Canarygrass: scale 0 to 100 (0 no effect, 100 complete control)
Excerpt: as §1

[3] = test system: chickweed; test: Test D pre-/postemergence herbicide test; type: in vivo, Stellaria media; details: for Plant response rating: Chickweed, scale 0 to 100
Excerpt: as §1

[4] = test system: barnyardgrass; test: Test E preemergence herbicide test; type: in vivo, Echinochloa crus-galli; set-up: key: 0 = no effect, 100 = complete control
Excerpt: (§2) Seeds of plant species selected from corn (Zea mays), soybean (Glycine max), velvetleaf (Abutilon theophrasti), lambsquarters (Chenopodium album), wild poinsettia (Euphorbia heterophylla), pigweed, palmer (palmer pigweed, Amaranthus palmeri), waterhemp (common waterhemp, Amaranthus rudis), surinam grass (Brachiaria decumbens), crabgrass, large (large crabgrass, Digitaria sanguinalis), crabgrass, Brazil (Brazilian crabgrass, Digitaria horizontalis), panicum, fall (fall panicum, Panicum dichotomiflorum), foxtail, giant (giant foxtail, Setaria faberii), foxtail, green (green foxtail, Setaria viridis), goosegrass (Eleusine indica), johnsongrass (Sorghum halepense), ragweed (common ragweed, Ambrosia elatior), barnyardgrass (Echinochloa crus-galli), sandbur (southern sandbur, Cenchrus echinatus), arrowleaf […] rhombifolia), ryegrass, Italian (Italian ryegrass, Lolium multiflorum), dayflower, VA (Virginia dayflower, Commelina virginica), field bindweed (Convolvulus arvensis), morningglory (Ipomoea coccinea), nightshade (eastern black nightshade, Solanum ptycanthum), kochia (Kochia scoparia), nutsedge, yellow (yellow nutsedge, Cyperus esculentus), cocklebur (common cocklebur, Xanthium strumarium), smartweed (ladysthumb smartweed, Polygonum Persicaria) and beggarticks (hairy beggarticks, Bidens pilosa), were planted into a silt loam soil and treated preemergence with test chemicals formulated in a non-phytotoxic solvent mixture which included a surfactant. Treated plants and controls were maintained in a greenhouse for 21 days, after which time all species were compared to controls and visually evaluated. Plant response ratings, summarized in Table E, are based on a scale of 0 to 100 where 0 is no effect and 100 is complete control. A dash (-) response means no test result.

[5] = test system: johnsongrass; test: Test E preemergence herbicide test; type: in vivo, Sorghum halepense; set-up: key: 0 = no effect, 100 = complete control
Excerpt: as §2

[6] = test system: surinam grass; test: Test E preemergence herbicide test; type: in vivo, Brachiaria decumbens; set-up: key: 0 = no effect, 100 = complete control
Excerpt: as §2

[7] = test system: arrowleaf sida; test: Test E preemergence herbicide test; type: in vivo, Sida rhombifolia; set-up: key: 0 = no effect, 100 = complete control
Excerpt: as §2

[8] = test system: crabgrass, large; test: Test E preemergence herbicide test; type: in vivo, Digitaria sanguinalis; set-up: key: 0 = no effect, 100 = complete control
Excerpt: as §2

O=C1NCC(c2ccc(F)c(F)c2)C1C(=O)Nc1cccc(F)c1 (racemic) [Compound 12]
Plant response rating ([1]; 16 g ai/ha): 0 | Plant response rating ([1]; 31 g ai/ha): 0 | Plant response rating ([1]; 62 g ai/ha): 0 | Plant response rating ([1]; 125 g ai/ha): 10 | Plant response rating ([1]; 250 g ai/ha): 15 | Plant response rating, Ryegrass, Italian ([1]; 31 g ai/ha): 0 | Plant response rating, Ryegrass, Italian ([1]; 62 g ai/ha): 0 | Plant response rating, Ryegrass, Italian ([1]; 125 g ai/ha): 0 | Plant response rating, Ryegrass, Italian ([1]; 250 g ai/ha): 0 | Plant response rating, Ryegrass, Italian ([1]; 16 g ai/ha): 0 | Plant response rating ([2]; Postemergence, 16 g ai/ha): 0 | Plant response rating ([2]; Postemergence, 31 g ai/ha): 0 | Plant response rating ([2]; Postemergence, 62 g ai/ha): 15 | Plant response rating ([2]; Postemergence, 125 g ai/ha): 15 | Plant response rating ([2]; Postemergence, 250 g ai/ha): 30 | Plant response rating, Canarygrass ([2]; Preemergence, 31 g ai/ha): 0 | Plant response rating, Canarygrass ([2]; Preemergence, 62 g ai/ha): 0 | Plant response rating, Canarygrass ([2]; Preemergence, 16 g ai/ha): 0 | Plant response rating ([2]; Preemergence, 125 g ai/ha): 20 | Plant response rating ([2]; Preemergence, 250 g ai/ha): 40 | Plant response rating ([3]; Postemergence, 16 g ai/ha): 0 | Plant response rating ([3]; Postemergence, 31 g ai/ha): 0 | Plant response rating ([3]; Postemergence, 62 g ai/ha): 0 | Plant response rating ([3]; Postemergence, 125 g ai/ha): 20 | Plant response rating ([3]; Postemergence, 250 g ai/ha): 30 | Plant response rating, Chickweed ([3]; Preemergence, 62 g ai/ha, scale 0 to 100 (0 no effect, 100 complete control)): 0 | Plant response rating ([3]; Preemergence, 125 g ai/ha): 0 | Plant response rating ([3]; Preemergence, 250 g ai/ha): 0

O=C1NCC(c2ccc(F)cc2)C1C(=O)Nc1ccccc1F (racemic) [Compound 16]
Plant response rating, Barnyardgrass ([4]; 16 g ai/ha): 0 | Plant response rating, Barnyardgrass ([4]; 31 g ai/ha): 0 | Plant response rating, Barnyardgrass ([4]; 62 g ai/ha): 0 | Plant response rating, Barnyardgrass ([4]; 125 g ai/ha): 10 | Plant response rating, Barnyardgrass ([4]; 250 g ai/ha): 70 | Plant response rating, Johnsongrass ([5]; 16 g ai/ha): 0 | Plant response rating, Johnsongrass ([5]; 31 g ai/ha): 0 | Plant response rating, Johnsongrass ([5]; 62 g ai/ha): 0 | Plant response rating, Johnsongrass ([5]; 125 g ai/ha): 0 | Plant response rating, Johnsongrass ([5]; 250 g ai/ha): 0 | Plant response rating, Surinam Grass ([6]; 16 g ai/ha): 0 | Plant response rating, Surinam Grass ([6]; 31 g ai/ha): 0 | Plant response rating, Surinam Grass ([6]; 62 g ai/ha): 20 | Plant response rating, Surinam Grass ([6]; 125 g ai/ha): 35 | Plant response rating, Surinam Grass ([6]; 250 g ai/ha): 60 | Plant response rating, Arrowleaf Sida ([7]; 16 g ai/ha): 0 | Plant response rating, Arrowleaf Sida ([7]; 31 g ai/ha): 0 | Plant response rating, Arrowleaf Sida ([7]; 62 g ai/ha): 0 | Plant response rating, Arrowleaf Sida ([7]; 125 g ai/ha): 0 | Plant response rating, Arrowleaf Sida ([7]; 250 g ai/ha): 0 | Plant response rating, Crabgrass, Large ([8]; 16 g ai/ha): 10 | Plant response rating, Crabgrass, Large ([8]; 31 g ai/ha): 20 | Plant response rating, Crabgrass, Large ([8]; 62 g ai/ha): 30 | Plant response rating, Crabgrass, Large ([8]; 125 g ai/ha): 75 | Plant response rating, Crabgrass, Large ([8]; 250 g ai/ha): 98

O=C1NCC(c2cc(F)c(F)c(F)c2)C1C(=O)Nc1ccccc1C(F)(F)F (racemic) [Compound 33]
Plant response rating ([1]; 16 g ai/ha): 0 | Plant response rating ([1]; 31 g ai/ha): 0 | Plant response rating ([1]; 62 g ai/ha): 0 | Plant response rating ([1]; 125 g ai/ha): 0 | Plant response rating ([1]; 250 g ai/ha): 0 | Plant response rating ([2]; Postemergence, 16 g ai/ha): 0 | Plant response rating ([2]; Postemergence, 31 g ai/ha): 0 | Plant response rating ([2]; Postemergence, 62 g ai/ha): 0 | Plant response rating ([2]; Postemergence, 125 g ai/ha): 0 | Plant response rating ([2]; Postemergence, 250 g ai/ha): 0 | Plant response rating ([3]; Postemergence, 16 g ai/ha): 0 | Plant response rating ([3]; Postemergence, 31 g ai/ha): 0 | Plant response rating ([3]; Postemergence, 62 g ai/ha): 0 | Plant response rating ([3]; Postemergence, 125 g ai/ha): 10 | Plant response rating ([3]; Postemergence, 250 g ai/ha): 10
